Reference: ChEMBL document CHEMBL5236590, “Discovery of Novel N-(5-(Pyridin-3-yl)-1H-indazol-3-yl)benzamide Derivatives as Potent Cyclin-Dependent Kinase 7 Inhibitors for the Treatment of Autosomal Dominant Polycystic Kidney Disease” (J Med Chem, 2022)
Calls of active or inactive are those of the source. The calls are words filed in the database; no cut-off is given here.

What was measured:
[1] = target: Ribosomal protein S6 kinase alpha-4 (Homo sapiens) (UniProt O75676); assay: Inhibition of human partial length wild type MSK2 expressed in bacterial system at 1 uM by KINOMEscan analysis relative to control
[2] = target: Interleukin-1 receptor-associated kinase 4 (Homo sapiens) (UniProt Q9NWZ3); assay: Inhibition of human partial length wild type IRAK4 expressed in mammalian system at 1 uM by KINOMEscan analysis relative to control
[3] = target: RAF proto-oncogene serine/threonine-protein kinase (Homo sapiens) (UniProt P04049); assay: Inhibition of human partial length wild type c-RAF (I330/T640) expressed in bacterial system at 1 uM by KINOMEscan analysis relative to control
[4] = target: Cyclin-dependent kinase 12 (Homo sapiens, UniProt Q9NYV4); assay: Inhibition of CDK12 (unknown origin)
[5] = Toxicity in wild type mouse assessed as body weight at 5 mg/kg; format: organism-based; conditions: in vivo
[6] = target: Cyclin-dependent kinase 7 (Homo sapiens, UniProt P50613); assay: Inhibition of CDK7 (unknown origin)
[7] = target: Cyclin-dependent kinase 5 (Homo sapiens, UniProt Q00535); assay: Inhibition of CDK5 (unknown origin)
[8] = Plasma protein binding in mouse measured after 4 hrs by LC-MS/MS analysis; format: ADME, cell-free; conditions: read-out: PPB
[9] = target: Vascular endothelial growth factor receptor 2 (Homo sapiens) (UniProt P35968); assay: Inhibition of human partial length wild type KDR (R787/P1253) expressed in mammalian system at 1 uM by KINOMEscan analysis relative to control
[10] = target: Glycogen synthase kinase-3 beta (Homo sapiens) (UniProt P49841); assay: Inhibition of human full length GSK3beta expressed in mammalian system at 1 uM by KINOMEscan analysis relative to control
[11] = Apparent permeability across basolateral to apical side in human Caco-2 cells measured after 120 mins by LC-MS/MS analysis; format: ADME, cell-based
[12] = target: SRSF protein kinase 1 (Homo sapiens) (UniProt Q96SB4); assay: Inhibition of human full length wild type SRPK1 expressed in mammalian system at 1 uM by KINOMEscan analysis relative to control
[13] = target: Mitogen-activated protein kinase 14 (Homo sapiens) (UniProt Q16539); assay: Inhibition of full length human recombinant SAPK2a at 1 uM by radiometric assay
[14] = organism: Homo sapiens; assay: Inhibition of PIK3 (unknown origin) at 1 uM relative to control
[15] = target: Cyclin-dependent kinase 6 (Homo sapiens, UniProt Q00534); assay: Inhibition of CDK6 (unknown origin)
[16] = system: Mus musculus; assay: Reduction in AMPD3 protein expression in kidney-specific Pkd1 knockout ADPKD mouse model assessed as protein expression in cyst-lining epithelial cell at 5 mg/kg by Western blot analysis; format: functional, organism-based
[17] = organism: Mus musculus; assay: Suppression of cyst formation in C57BL/6 mouse embryonic kidney cyst model at 1 to 3 uM measured for 4 to 12 […]; format: functional, organism-based; conditions: dose 1-3 µM, time 4-12 hrs

Vascular endothelial growth factor receptor 2 (Homo sapiens), sequence (P35968 whole entry): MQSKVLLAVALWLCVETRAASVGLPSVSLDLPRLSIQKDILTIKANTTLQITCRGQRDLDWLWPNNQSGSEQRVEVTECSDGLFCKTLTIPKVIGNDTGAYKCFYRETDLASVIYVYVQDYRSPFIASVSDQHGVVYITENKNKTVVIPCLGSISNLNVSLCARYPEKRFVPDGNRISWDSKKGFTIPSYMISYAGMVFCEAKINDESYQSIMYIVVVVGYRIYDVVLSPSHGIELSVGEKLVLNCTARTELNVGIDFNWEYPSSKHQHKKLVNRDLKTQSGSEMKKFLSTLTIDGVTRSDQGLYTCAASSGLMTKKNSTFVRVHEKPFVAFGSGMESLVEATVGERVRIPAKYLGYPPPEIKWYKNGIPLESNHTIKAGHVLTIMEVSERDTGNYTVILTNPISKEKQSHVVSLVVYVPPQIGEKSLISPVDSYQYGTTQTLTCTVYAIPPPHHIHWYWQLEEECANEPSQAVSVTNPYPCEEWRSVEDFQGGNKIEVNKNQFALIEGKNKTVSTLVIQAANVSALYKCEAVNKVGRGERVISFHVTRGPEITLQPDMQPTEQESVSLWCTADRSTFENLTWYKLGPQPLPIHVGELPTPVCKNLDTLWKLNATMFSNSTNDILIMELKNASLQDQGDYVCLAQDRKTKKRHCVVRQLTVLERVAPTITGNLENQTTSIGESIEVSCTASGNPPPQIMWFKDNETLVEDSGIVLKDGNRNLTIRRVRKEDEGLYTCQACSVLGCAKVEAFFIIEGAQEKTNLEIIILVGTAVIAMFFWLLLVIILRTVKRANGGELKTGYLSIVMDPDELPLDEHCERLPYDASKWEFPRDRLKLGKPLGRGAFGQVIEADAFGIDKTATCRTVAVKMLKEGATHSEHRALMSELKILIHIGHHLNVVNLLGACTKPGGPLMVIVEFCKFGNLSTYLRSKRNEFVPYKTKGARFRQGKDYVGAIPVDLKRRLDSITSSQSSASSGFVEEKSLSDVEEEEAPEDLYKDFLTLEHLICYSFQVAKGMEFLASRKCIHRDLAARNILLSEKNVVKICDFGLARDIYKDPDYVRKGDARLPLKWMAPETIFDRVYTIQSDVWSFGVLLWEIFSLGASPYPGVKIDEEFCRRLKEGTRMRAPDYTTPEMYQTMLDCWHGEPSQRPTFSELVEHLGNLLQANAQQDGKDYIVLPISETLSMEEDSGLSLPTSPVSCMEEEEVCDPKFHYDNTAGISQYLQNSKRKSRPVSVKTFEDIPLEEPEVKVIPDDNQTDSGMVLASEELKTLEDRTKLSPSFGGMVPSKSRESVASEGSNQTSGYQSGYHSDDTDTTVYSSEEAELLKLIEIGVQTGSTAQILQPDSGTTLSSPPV
Cyclin-dependent kinase 7, sequence (P50613 whole entry): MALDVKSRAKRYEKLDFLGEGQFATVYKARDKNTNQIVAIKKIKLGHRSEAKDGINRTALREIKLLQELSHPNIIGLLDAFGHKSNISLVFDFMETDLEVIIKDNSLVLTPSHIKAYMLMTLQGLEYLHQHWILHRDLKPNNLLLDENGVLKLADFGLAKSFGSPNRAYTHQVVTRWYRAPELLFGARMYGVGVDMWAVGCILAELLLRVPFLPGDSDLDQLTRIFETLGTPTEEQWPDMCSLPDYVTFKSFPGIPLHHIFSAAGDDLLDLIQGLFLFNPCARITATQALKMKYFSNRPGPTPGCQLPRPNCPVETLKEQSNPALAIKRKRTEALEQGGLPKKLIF
Mitogen-activated protein kinase 14 (Homo sapiens), sequence (Q16539 whole entry): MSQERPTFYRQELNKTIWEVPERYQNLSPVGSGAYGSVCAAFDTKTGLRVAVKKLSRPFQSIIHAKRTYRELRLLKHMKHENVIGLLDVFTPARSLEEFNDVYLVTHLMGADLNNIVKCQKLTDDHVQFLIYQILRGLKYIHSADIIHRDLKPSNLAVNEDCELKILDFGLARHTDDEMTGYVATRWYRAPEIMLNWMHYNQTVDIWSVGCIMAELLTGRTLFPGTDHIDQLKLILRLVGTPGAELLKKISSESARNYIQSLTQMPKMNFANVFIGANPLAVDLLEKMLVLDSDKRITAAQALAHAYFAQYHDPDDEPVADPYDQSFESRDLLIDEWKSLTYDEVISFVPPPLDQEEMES
Glycogen synthase kinase-3 beta (Homo sapiens), sequence (P49841 whole entry, looked up): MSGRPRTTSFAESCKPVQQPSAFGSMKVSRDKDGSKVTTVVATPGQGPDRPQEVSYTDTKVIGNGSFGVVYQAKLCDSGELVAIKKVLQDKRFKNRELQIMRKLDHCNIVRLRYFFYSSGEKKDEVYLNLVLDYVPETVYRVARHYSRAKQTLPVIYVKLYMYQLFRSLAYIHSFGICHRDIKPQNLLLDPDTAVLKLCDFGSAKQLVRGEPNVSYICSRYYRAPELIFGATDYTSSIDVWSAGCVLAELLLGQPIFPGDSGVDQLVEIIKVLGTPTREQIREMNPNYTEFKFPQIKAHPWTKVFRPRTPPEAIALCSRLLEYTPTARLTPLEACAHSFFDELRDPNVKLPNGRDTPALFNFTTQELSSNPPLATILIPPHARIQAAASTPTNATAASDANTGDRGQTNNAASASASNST
Cyclin-dependent kinase 5, sequence (Q00535 whole entry): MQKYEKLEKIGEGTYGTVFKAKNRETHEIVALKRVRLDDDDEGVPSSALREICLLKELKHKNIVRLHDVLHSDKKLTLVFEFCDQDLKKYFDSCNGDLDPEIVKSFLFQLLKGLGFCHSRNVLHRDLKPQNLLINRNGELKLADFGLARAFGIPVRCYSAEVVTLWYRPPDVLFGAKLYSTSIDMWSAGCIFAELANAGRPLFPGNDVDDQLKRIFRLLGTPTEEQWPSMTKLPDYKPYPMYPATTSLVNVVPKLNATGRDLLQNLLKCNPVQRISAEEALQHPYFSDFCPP
Interleukin-1 receptor-associated kinase 4 (Homo sapiens), sequence (Q9NWZ3 whole entry): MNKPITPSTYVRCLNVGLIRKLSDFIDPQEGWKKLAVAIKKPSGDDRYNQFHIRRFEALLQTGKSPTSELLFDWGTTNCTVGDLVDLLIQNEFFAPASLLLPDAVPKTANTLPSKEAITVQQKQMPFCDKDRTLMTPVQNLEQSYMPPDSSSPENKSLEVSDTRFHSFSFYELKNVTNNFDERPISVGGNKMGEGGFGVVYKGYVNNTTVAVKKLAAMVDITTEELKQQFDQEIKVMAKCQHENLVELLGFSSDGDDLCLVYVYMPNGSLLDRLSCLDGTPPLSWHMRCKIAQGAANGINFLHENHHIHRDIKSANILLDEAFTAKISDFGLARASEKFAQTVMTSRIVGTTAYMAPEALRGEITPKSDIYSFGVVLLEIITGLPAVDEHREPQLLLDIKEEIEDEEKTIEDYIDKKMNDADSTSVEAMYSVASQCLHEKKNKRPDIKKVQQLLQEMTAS
Ribosomal protein S6 kinase alpha-4 (Homo sapiens), sequence (O75676 whole entry, looked up): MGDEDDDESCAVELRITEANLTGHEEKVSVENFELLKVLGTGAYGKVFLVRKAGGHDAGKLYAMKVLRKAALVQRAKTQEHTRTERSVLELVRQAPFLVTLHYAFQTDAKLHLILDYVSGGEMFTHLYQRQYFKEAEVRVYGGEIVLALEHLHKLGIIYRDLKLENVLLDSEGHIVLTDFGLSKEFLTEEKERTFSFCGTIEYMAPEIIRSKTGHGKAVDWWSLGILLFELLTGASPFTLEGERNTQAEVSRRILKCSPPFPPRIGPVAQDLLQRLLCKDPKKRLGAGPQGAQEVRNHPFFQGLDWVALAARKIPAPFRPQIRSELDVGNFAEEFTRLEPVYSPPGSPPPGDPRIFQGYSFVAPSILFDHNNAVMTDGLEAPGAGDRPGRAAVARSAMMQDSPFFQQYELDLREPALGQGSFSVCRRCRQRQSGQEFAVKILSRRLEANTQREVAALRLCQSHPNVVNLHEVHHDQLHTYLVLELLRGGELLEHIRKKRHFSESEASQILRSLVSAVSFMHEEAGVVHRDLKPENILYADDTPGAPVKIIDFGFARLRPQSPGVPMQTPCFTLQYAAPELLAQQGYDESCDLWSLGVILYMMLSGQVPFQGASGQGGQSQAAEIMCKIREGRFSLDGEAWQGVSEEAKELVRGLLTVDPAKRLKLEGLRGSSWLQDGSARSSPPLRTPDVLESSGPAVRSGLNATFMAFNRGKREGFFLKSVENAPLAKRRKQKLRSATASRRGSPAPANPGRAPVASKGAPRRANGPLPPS
RAF proto-oncogene serine/threonine-protein kinase (Homo sapiens), sequence (P04049 whole entry): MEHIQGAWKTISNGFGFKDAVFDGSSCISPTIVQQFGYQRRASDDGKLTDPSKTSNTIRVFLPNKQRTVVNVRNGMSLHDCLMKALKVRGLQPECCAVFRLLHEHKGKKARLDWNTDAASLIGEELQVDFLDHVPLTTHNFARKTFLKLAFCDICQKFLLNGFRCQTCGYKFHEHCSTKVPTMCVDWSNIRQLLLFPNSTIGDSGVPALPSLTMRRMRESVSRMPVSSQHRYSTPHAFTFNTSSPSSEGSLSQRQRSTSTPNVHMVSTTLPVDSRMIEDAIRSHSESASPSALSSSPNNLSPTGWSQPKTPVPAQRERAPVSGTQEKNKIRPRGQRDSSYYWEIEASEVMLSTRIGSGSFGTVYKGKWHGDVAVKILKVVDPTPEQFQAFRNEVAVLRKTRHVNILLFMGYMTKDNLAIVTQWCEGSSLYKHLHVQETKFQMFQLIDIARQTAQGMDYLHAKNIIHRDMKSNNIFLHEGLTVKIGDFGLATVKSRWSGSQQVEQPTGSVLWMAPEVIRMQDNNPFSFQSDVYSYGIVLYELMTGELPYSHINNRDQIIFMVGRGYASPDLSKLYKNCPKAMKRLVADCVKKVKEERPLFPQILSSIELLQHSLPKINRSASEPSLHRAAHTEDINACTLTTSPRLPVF
Cyclin-dependent kinase 6, sequence (Q00534 whole entry): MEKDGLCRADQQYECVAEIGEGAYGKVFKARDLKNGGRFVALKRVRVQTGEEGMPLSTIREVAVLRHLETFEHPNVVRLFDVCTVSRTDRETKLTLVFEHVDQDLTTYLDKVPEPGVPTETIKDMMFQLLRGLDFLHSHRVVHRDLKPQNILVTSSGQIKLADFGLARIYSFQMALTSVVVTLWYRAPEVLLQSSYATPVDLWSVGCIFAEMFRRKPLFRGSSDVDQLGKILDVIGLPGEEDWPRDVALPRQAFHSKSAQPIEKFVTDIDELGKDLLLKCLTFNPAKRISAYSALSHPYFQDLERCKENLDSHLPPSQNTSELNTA

Which inhibition [1] does the source give for `C=CC(=O)Nc1ccc(C(=O)Nc2n[nH]c3ccc(-c4cncc(NC[C@@H](O)c5ccccc5)c4)cc23)cc1` here?
The inhibition was under 50%.

What about the inhibition [2] of the same compound?
The inhibition was under 50%.

What about the inhibition [3] of the same compound?
Its inhibition is under 50%.

And the IC50 [4]?
The IC50 was over 10 µM.

And the Activity [5]?
The Activity was “Non-Toxic”.

And the IC50 [6]?
Its IC50 is 0.004 µM.

And the IC50 [7]?
Its IC50 is over 10 µM.

And the fraction unbound at 4 h [8]?
Its fraction unbound at 4 h is under 0.01.

And the inhibition [9]?
Its inhibition is 63%.

And the inhibition [10]?
The inhibition was 99%.

And the Papp B→A at 2 h [11]?
Its Papp B→A at 2 h is 60 nm/s.

And the inhibition [12]?
The inhibition was under 50%.

What about the inhibition [13] of the same compound?
The inhibition was under 50%.

And the inhibition [14]?
The inhibition was under 50%.

And the IC50 [15]?
Its IC50 is 0.95 µM.

What about the Activity [16] of the same compound?
The Activity was “Active”.

What about the inhibition [17] of the same compound?
Its inhibition is “Dose-Dependent Effect”.
